Legend:
Pancreas [1] = test: Biodistribution in ddY mouse pancreas at 4.8 MBq/0.1 mL after 60 mins by gamma countingeas; format: ADME, organism-based; conditions: in vivo, 1 h
[2] = Metabolic stability in Sprague-Dawley plasma assessed as unchanged drug level at 37 MBq/0.1 mL, iv after 15 mins; format: ADME, organism-based; conditions: rat, read-out: Stability
Blood [3] = test: Biodistribution in ddY mouse blood at 4.8 MBq/0.1 mL after 90 mins by gamma counting; format: ADME, organism-based; conditions: in vivo, 1.5 h
Mus musculus [4] = species: Mus musculus; test: Biodistribution in ddY mouse large intestine at 4.8 MBq/0.1 mL after 60 mins by gamma counting; format: ADME, organism-based; conditions: in vivo, 1 h
Mus musculus [5] = species: Mus musculus; test: Biodistribution in ddY mouse small intestine at 4.8 MBq/0.1 mL after 90 mins by gamma counting; format: ADME, organism-based; conditions: in vivo, 1.5 h
Lung [6] = test: Biodistribution in ddY mouse lung at 4.8 MBq/0.1 mL after 5 mins by gamma counting; format: ADME, organism-based; conditions: in vivo
Mus musculus [7] = species: Mus musculus; test: Biodistribution in ddY mouse large intestine at 4.8 MBq/0.1 mL after 15 mins by gamma counting; format: ADME, organism-based; conditions: in vivo, 0.25 h
Brain [8] = test: Biodistribution in ddY mouse brain at 4.8 MBq/0.1 mL after 5 mins by gamma counting; format: ADME, organism-based; conditions: in vivo
[9] = Drug uptake in monkey pons assessed as distribution volume ratio at 185 to 220 MBq, iv after 10 to 90 mins by PET analysis; format: ADME, organism-based, Macaca mulatta; conditions: rhesus monkey, in vivo
[10] = Drug uptake in monkey cerebellum at 185 to 220 MBq, iv after 10 to 60 mins by PET analysis; format: ADME, organism-based, Macaca mulatta; conditions: rhesus monkey, in vivo
[11] = Drug uptake in monkey pons at 185 to 220 MBq, iv after 10 to 60 mins by PET analysis; format: ADME, organism-based, Macaca mulatta; conditions: rhesus monkey, in vivo
Heart [12] = test: Biodistribution in ddY mouse heart at 4.8 MBq/0.1 mL after 90 mins by gamma counting; format: ADME, organism-based; conditions: in vivo, 1.5 h
Heart [13] = test: Biodistribution in ddY mouse heart at 4.8 MBq/0.1 mL after 15 mins by gamma counting; format: ADME, organism-based; conditions: in vivo, 0.25 h
Spleen [14] = test: Biodistribution in ddY mouse spleen at 4.8 MBq/0.1 mL after 90 mins by gamma counting; format: ADME, organism-based; conditions: in vivo, 1.5 h
Brain [15] = test: Biodistribution in ddY mouse brain at 4.8 MBq/0.1 mL after 90 mins by gamma counting; format: ADME, organism-based; conditions: in vivo, 1.5 h
[16] = Drug uptake in monkey cingulate cortex at 185 to 220 MBq, iv after 20 mins by PET analysis; format: ADME, organism-based, Macaca mulatta; conditions: rhesus monkey, in vivo
[17] = Metabolic stability in Sprague-Dawley brain assessed as unchanged drug level at 37 MBq/0.1 mL, iv after 60 mins; format: ADME, organism-based; conditions: rat, read-out: Stability
Pancreas [18] = test: Biodistribution in ddY mouse pancreas at 4.8 MBq/0.1 mL after 5 mins by gamma countingeas; format: ADME, organism-based; conditions: in vivo
Kidney [19] = test: Biodistribution in ddY mouse kidney at 4.8 MBq/0.1 mL after 30 mins by gamma counting; format: ADME, organism-based; conditions: in vivo, 0.5 h
Lung [20] = test: Biodistribution in ddY mouse lung at 4.8 MBq/0.1 mL after 30 mins by gamma counting; format: ADME, organism-based; conditions: in vivo, 0.5 h
Mus musculus [21] = species: Mus musculus; test: Biodistribution in ddY mouse small intestine at 4.8 MBq/0.1 mL after 15 mins by gamma counting; format: ADME, organism-based; conditions: in vivo, 0.25 h
Mus musculus [22] = species: Mus musculus; test: Biodistribution in ddY mouse large intestine at 4.8 MBq/0.1 mL after 30 mins by gamma counting; format: ADME, organism-based; conditions: in vivo, 0.5 h
Blood [23] = test: Biodistribution in ddY mouse blood at 4.8 MBq/0.1 mL after 5 mins by gamma counting; format: ADME, organism-based; conditions: in vivo
Heart [24] = test: Biodistribution in ddY mouse heart at 4.8 MBq/0.1 mL after 1 min by gamma counting; format: ADME, organism-based; conditions: in vivo
[25] = Metabolic stability in Sprague-Dawley plasma assessed as unchanged drug level at 37 MBq/0.1 mL, iv after 60 mins; format: ADME, organism-based; conditions: rat, read-out: Stability
[26] = Metabolic stability in monkey plasma assessed as unchanged drug level at 185 MBq/0.1 mL, iv after 15 mins; format: ADME, organism-based, Macaca mulatta; conditions: rhesus monkey, read-out: Stability
[27] = Drug uptake in monkey thalamus assessed as distribution volume ratio at 185 to 220 MBq, iv after 10 to 90 mins by PET analysis; format: ADME, organism-based, Macaca mulatta; conditions: rhesus monkey, in vivo
Muscle tissue [28] = test: Biodistribution in ddY mouse muscle at 4.8 MBq/0.1 mL after 15 mins by gamma counting; format: ADME, organism-based; conditions: in vivo, 0.25 h
[29] = Metabolic stability in monkey plasma assessed as unchanged drug level at 185 MBq/0.1 mL, iv after 60 mins; format: ADME, organism-based, Macaca mulatta; conditions: rhesus monkey, read-out: Stability
Brain [30] = test: Biodistribution in ddY mouse brain at 4.8 MBq/0.1 mL after 15 mins by gamma counting; format: ADME, organism-based; conditions: in vivo, 0.25 h
Pancreas [31] = test: Biodistribution in ddY mouse pancreas at 4.8 MBq/0.1 mL after 15 mins by gamma countingeas; format: ADME, organism-based; conditions: in vivo, 0.25 h
[32] = Drug uptake in monkey cerebellum at 185 to 220 MBq, iv after 20 mins by PET analysis; format: ADME, organism-based, Macaca mulatta; conditions: rhesus monkey, in vivo
Blood [33] = test: Biodistribution in ddY mouse blood at 4.8 MBq/0.1 mL after 1 min by gamma counting; format: ADME, organism-based; conditions: in vivo
Muscle tissue [34] = test: Biodistribution in ddY mouse muscle at 4.8 MBq/0.1 mL after 90 mins by gamma counting; format: ADME, organism-based; conditions: in vivo, 1.5 h
[35] = Drug uptake in monkey putamen at 185 to 220 MBq, iv after 10 mins by PET analysis; format: ADME, organism-based, Macaca mulatta; conditions: rhesus monkey, in vivo
Mus musculus [36] = species: Mus musculus; test: Biodistribution in ddY mouse testis at 4.8 MBq/0.1 mL after 60 mins by gamma counting; format: ADME, organism-based; conditions: in vivo, 1 h
Kidney [37] = test: Biodistribution in ddY mouse kidney at 4.8 MBq/0.1 mL after 5 mins by gamma counting; format: ADME, organism-based; conditions: in vivo
Blood [38] = test: Biodistribution in ddY mouse blood at 4.8 MBq/0.1 mL after 15 mins by gamma counting; format: ADME, organism-based; conditions: in vivo, 0.25 h
Liver [39] = test: Biodistribution in ddY mouse liver at 4.8 MBq/0.1 mL after 60 mins by gamma counting; format: ADME, organism-based; conditions: in vivo, 1 h
Liver [40] = test: Biodistribution in ddY mouse liver at 4.8 MBq/0.1 mL after 5 mins by gamma counting; format: ADME, organism-based; conditions: in vivo
Spleen [41] = test: Biodistribution in ddY mouse spleen at 4.8 MBq/0.1 mL after 1 min by gamma counting; format: ADME, organism-based; conditions: in vivo
Liver [42] = test: Biodistribution in ddY mouse liver at 4.8 MBq/0.1 mL after 90 mins by gamma counting; format: ADME, organism-based; conditions: in vivo, 1.5 h
[43] = Drug uptake in monkey pons at 185 to 220 MBq, iv after 10 mins by PET analysis; format: ADME, organism-based, Macaca mulatta; conditions: rhesus monkey, in vivo
Mus musculus [44] = species: Mus musculus; test: Biodistribution in ddY mouse large intestine at 4.8 MBq/0.1 mL after 90 mins by gamma counting; format: ADME, organism-based; conditions: in vivo, 1.5 h
Spleen [45] = test: Biodistribution in ddY mouse spleen at 4.8 MBq/0.1 mL after 15 mins by gamma counting; format: ADME, organism-based; conditions: in vivo, 0.25 h
Muscle tissue [46] = test: Biodistribution in ddY mouse muscle at 4.8 MBq/0.1 mL after 30 mins by gamma counting; format: ADME, organism-based; conditions: in vivo, 0.5 h
Spleen [47] = test: Biodistribution in ddY mouse spleen at 4.8 MBq/0.1 mL after 60 mins by gamma counting; format: ADME, organism-based; conditions: in vivo, 1 h
Pancreas [48] = test: Biodistribution in ddY mouse pancreas at 4.8 MBq/0.1 mL after 1 min by gamma countingeas; format: ADME, organism-based; conditions: in vivo
Brain [49] = test: Biodistribution in ddY mouse brain at 4.8 MBq/0.1 mL after 60 mins by gamma counting; format: ADME, organism-based; conditions: in vivo, 1 h
Heart [50] = test: Biodistribution in ddY mouse heart at 4.8 MBq/0.1 mL after 60 mins by gamma counting; format: ADME, organism-based; conditions: in vivo, 1 h
Mus musculus [51] = species: Mus musculus; test: Biodistribution in ddY mouse testis at 4.8 MBq/0.1 mL after 90 mins by gamma counting; format: ADME, organism-based; conditions: in vivo, 1.5 h

## CC(C)Nc1cc(-c2csc(N(C)C(=O)c3ccc([14CH3])cc3)n2)ncn1
Pancreas [1]
  Drug uptake: 0.03 % ID/g
[2]
  remaining at 0.25 h: 47.6%
Blood [3]
  Drug uptake: 0.02 % ID/g
Mus musculus [4]
  Drug uptake: 1.98 % ID/g
Mus musculus [5]
  Drug uptake: 7.09 % ID/g
Lung [6]
  Drug uptake: 2.56 % ID/g
Mus musculus [7]
  Drug uptake: 1.2 % ID/g
Brain [8]
  Drug uptake: 2.58 % ID/g
[9]
  Ratio: 1
[10]
  Drug uptake: Active
[11]
  Drug uptake: Active
Heart [12]
  Drug uptake: 0.01 % ID/g
Heart [13]
  Drug uptake: 0.27 % ID/g
Spleen [14]
  Drug uptake: 0.02 % ID/g
Brain [15]
  Drug uptake: 0.62 % ID/g
[16]
  SUV: 0.9
[17]
  remaining at 1 h: 98.2%
Pancreas [18]
  Drug uptake: 1.23 % ID/g
Kidney [19]
  Drug uptake: 0.56 % ID/g
Lung [20]
  Drug uptake: 0.31 % ID/g
Mus musculus [21]
  Drug uptake: 41.52 % ID/g
Mus musculus [22]
  Drug uptake: 2.32 % ID/g
Blood [23]
  Drug uptake: 1.27 % ID/g
Heart [24]
  Drug uptake: 4.93 % ID/g
[25]
  remaining at 1 h: 33.9%
[26]
  remaining at 0.25 h: 43.1%
[27]
  Ratio: 2
Muscle tissue [28]
  Drug uptake: 0.23 % ID/g
[29]
  remaining at 1 h: 28.4%
Brain [30]
  Drug uptake: 1.99 % ID/g
Pancreas [31]
  Drug uptake: 0.3 % ID/g
[32]
  SUV: 1.2
Blood [33]
  Drug uptake: 3.09 % ID/g
Muscle tissue [34]
  Drug uptake: 0.17 % ID/g
[35]
  Drug uptake: Active
Mus musculus [36]
  Drug uptake: 0.13 % ID/g
Kidney [37]
  Drug uptake: 4.41 % ID/g
Blood [38]
  Drug uptake: 0.37 % ID/g
Liver [39]
  Drug uptake: 0.51 % ID/g
Liver [40]
  Drug uptake: 11.38 % ID/g
Spleen [41]
  Drug uptake: 1.74 % ID/g
Liver [42]
  Drug uptake: 0.3 % ID/g
[43]
  Drug uptake: Active
Mus musculus [44]
  Drug uptake: 7.02 % ID/g
Spleen [45]
  Drug uptake: 0.29 % ID/g
Muscle tissue [46]
  Drug uptake: 0.13 % ID/g
Spleen [47]
  Drug uptake: 0.02 % ID/g
Pancreas [48]
  Drug uptake: 4.48 % ID/g
Brain [49]
  Drug uptake: 1.04 % ID/g
Heart [50]
  Drug uptake: 0.06 % ID/g
Mus musculus [51]
  Drug uptake: 0.14 % ID/g

From ChEMBL document CHEMBL2176881, “Development of N-[4-[6-(isopropylamino)pyrimidin-4-yl]-1,3-thiazol-2-yl]-N-methyl-4-[11C]methylbenzamide for positron emission tomography imaging of metabotropic glutamate 1 receptor in monkey brain” (J Med Chem, 2012)
